Data as given in patent US20080119517A1, “COMPOSITIONS AND METHODS FOR PROTECTING AGAINST MITOCHONDRIA COMPONENT-MEDIATED PATHOLOGY” (Cornell Research Foundation, Inc., priority 2003, published 2008).

Assays:
[1] = system: liver mitochondria; settings: cited from earlier work
[2] = system: mouse middle cerebral artery occlusion (MCAO)/reperfusion; test: Middle cerebral artery occlusion (MCAO)/reperfusion, promethazine study; assay type: in vivo
Method: Middle cerebral artery occlusion/reperfusion studies were conducted as previously described. […] All animal experiments were conducted in accordance with National Institutes of Health and institutional guidelines. Male C57/B6 (Charles River Laboratories) mice weighing 18-29 g were housed in standard temperature (22±1° C.) and light-controlled (light on 07:00-21:00) environment with ad libitum access to food and water. Weight of animals undergoing stroke were restricted to less than 22 g. Animals undergoing stroke were randomized to two groups: untreated OP injection with 0.9% saline) and treated (IP injection with promethazine solution). Weight of animals undergoing sham operations was liberalized to 18-29 g. Surgery and Occlusion: Immediately before surgery, each mouse was anesthetized with 2% isoflurane (70% N2O/30% O2). During surgery, isoflurane was lowered to 1%. A midline incision was made in the neck and the right common carotid artery was dissected. The right MCA was occluded with a 7-0 nylon filament after permanent ligation of the external carotid artery and temporary ligation of the common carotid artery. […] Right MCA occlusion was defined as greater than or equal to a 90% drop of peak velocity measured by the laser Doppler flowmetry drop. […] The occluding filament was removed after 120 minutes. Sham operations consisted of the same duration and concentration of anesthesia, midline incision, doppler probe insertion over right temporal bone, and dissection of common carotid artery but no manipulation of the common carotid artery or external carotid artery. The surgeon was bided to treatment group. All mice were sacrificed at 24 hrs post perfusion. Experiments were in accordance with protocols approved by the Harvard Medical School Animal Care Committee. Drug Treatment: Both treated and control groups received two IP injections: the first one delivered 1 hr prior to ischemia and the second delivered 12 hrs later. Each i.p. dose was 10 mg/kg (in 0.5 ml) of promethazine dissolved in 0.9% NaCl or an equal volume of buffer alone. […] Determination of Infarct Volume: After 24 hrs of reperfusion, the mice were sacrificed. The brains were quickly removed and chilled for 2 minutes. The cerebellum was removed, Coronal sections (2 mm thick; n=6) were cut in a craniotome. […] After staining, each slice was scanned by an HP scanjet 4200 C, The unstained areas in each hemisphere were quantified and the ischemic area per slice=left (normal side)-right (ischemic side). […] The infarct volume was calculated by summing up the infracted areas in the 6 slices and calculating the volume for a cylinder (area×height). […] The examiner was blinded to treatment group.

[3] = system: 3-nitropropionic acid induced striatal lesions in Lewis rats; test: 3-nitropropionic acid striatal lesion model (Huntington's Disease); assay type: in vivo, rat
Method: Male Lewis 344 rats were administered 3-nitroproprionic acid by subcutaneous Alzet pumps. 3-Nitropropionic acid is a mitochondrial toxin which causes selective degeneration in the basal ganglia, mice, rats and primates. The lesions that it produces highly mimic the neuropathologic features associated with Huntington's Disease. The male Lewis rats weighed from about 340 to abut 370 grams and were obtained from Charles River Laboratories. At twelve weeks of age, the subcutaneous pumps were implanted. The concentration for each individual rat was calculated so that the animals received a dose of 38 mg/kg/d. Control animals were implanted with empty osmotic pumps. The 3-nitropropionic acid was administered for one week. Animals were treated with either phosphate buffered saline (PBS) promethazine in PBS at doses of 5 to 40 mg/kg/d. One week after the administration of the compound the rats were deeply anesthetized and transcardially perfused with 4% paraformaldehyde in PBS. Subsequently, 50 μm sections were obtained and stained for nissel substance. The lesion volumes were then calculated using stereologic procedures.

[4] = system: MPTP-induced dopamine depletion and dopaminergic neuron loss; test: MPTP experimental animal model for Parkinson's Disease; assay type: in vivo
Excerpt: 1-Methyl-4-phenyl-1,2,3,6-tetrahydropyridine (MPTP) has been employed as an experimental animal model for Parkinson's Disease. As evidenced by FIG. 9, promethazine appeared to have no effect on striatal dopamine levels at base line.

[5] = system: phospholipase A2; assay type: biochemical
[6] = system: humans; settings: human, in vivo; cited from earlier work
[7] = system: primary cerebrocortical neurons; test: Oxygen-glucose deprivation (OGD) of cultured primary cerebrocortical neurons; assay type: cell-based, mouse; settings: for OGD-mediated neuronal death (LDH release): promethazine 0.1 μM (p=0.05) and 0.5 μM (p<0.001)
Method: Heterocyclic-mediated protection was next examined in two models of stroke: (i) oxygen-glucose deprivation (OGD) of cultured primary cerebrocortical neurons, and; (ii) in the mouse, middle cerebral artery occlusion (MCAO)/reperfusion.
Neurotoxicity studies were conducted as previously described. […] Cerebral cortex of mouse embryos at day 15 (E15) were freed from meninges and separated from olfactory bulb and hippocampus.
OGD of primary cerebrocortical neurons is a widely used cell culture model of stroke-related pathology. […] Caspase-3 activation plays a key role in hypoxia/ischemia-mediated injury. To gam insight into the mechanism of promethazine-mediated neuroprotection, it was evaluated whether this compound could inhibit OGD-mediated caspase-3 activation.

[8] = system: heart during ischemia; settings: cited from earlier work

For `NCCc1c[nH]cn1` [Histamine], the “swelling of liver mitochondria” value [1] is given as “cause swelling”.

With `CC(CN1c2ccccc2Sc2ccccc21)N(C)C` (stereo not shown) [Promethazine] the “reduction in lesion size compared with saline-treated mice” value ([2]; 10 mg/kg i.p. 1 hr prior to ischemia and 12 hrs later, 24 hrs reperfusion, n=13, p<0.005) was 53%, the “reduction of maximal infarct size” value ([2]; 10 mg/kg i.p. twice) was 65% and the “reduction of variability of the injury” value ([2]; 10 mg/kg i.p. twice) was 65%. The neurologic score ([2]; 30 minute post-ischemia evaluation) was “not different”, the neurologic impairment score ([2]; 24 hours following MCAO, p<0.05) was “significantly improved” and the “protection from MCA occlusion/reperfusion” value ([2]; total stroke volume P<0.005) was “protects”. For the same compound, the striatal lesion volume ([3]; 3-nitropropionic acid 38 mg/kg/d for one week, promethazine 5 to 40 mg/kg/d, untreated ~14 mm^3) was about 4 mm^3, the 3-nitropropionic induced lesions ([3]; increasing dosages) was “blocked” and the “MPTP-induced reduction in striatal dopamine levels” value ([4]; 20 mg/kg) was “significantly attenuated”. For the same compound, the “depletion of striatal dopamine levels, dose response” value ([4]; 2.5, 5, and 40 mg/kg examined, optimal effects at 10 and 40 mg/kg) was “dose-dependent neuroprotection”, the “loss of dopaminergic neurons in the substantia nigra pars compacta” value ([4]; 50% cell loss following MPTP) was “significantly attenuated” and the “striatal dopamine levels at base line” value ([4]; without MPTP) was “no effect”. The PLA2 inhibition [5] was “does not appear to be a strong”, the tolerability in humans [6] was “well-tolerated drug with few adverse side effects” and the “OGD-mediated caspase-3 activation” value [7] was “reduced”. For the same compound, the “OGD-mediated neuronal death (LDH release)” value [7] was “inhibited” and the “OGD-mediated neuronal death (LDH release)” value ([7]; listed as promethazine) was “protection”.

For `CCN(CC)CCCC(C)Nc1c2ccc(Cl)cc2nc2ccc(OC)cc12` (stereo not shown) [Quinacrine], the “protection in the heart during ischemia” value [8] is given as “protective agent”.
